Experimental data reported in patent US8603497B2, “Composition for local anesthesia” (National University Corporation Okayama University, priority 2008, dated 2013).
Where a name gives a salt, the structure may show the parent alone.

Experiments:
Hartley male guinea pigs [1] = test: guinea pig wheal method (durability of local anesthetic action); settings: for ED50 for adrenaline alone (local anesthesia enhancing action) / ED50 for dexmedetomidine hydrochloride alone (local anesthesia enhancing action): added alone to lidocaine hydrochloride; for ED50 for adrenaline alone (local anesthesia enhancing action): calculated from scores of Solutions 6 to 10; for theoretical ED50 value in combined use / ED50 value obtained in the experiment in combined use: combined use of adrenaline and dexmedetomidine; for theoretical ED50 value in combined use: isobologram, mean ±95% confidence interval in brackets; for ED50 value obtained in the experiment in combined use: significantly different from theoretical, P<0.05 (T-test); for ED50 for dexmedetomidine hydrochloride alone (local anesthesia enhancing action): calculated from scores of Solutions 1 to 5
Protocol: A guinea pig wheal method was employed. The hair on the back of Hartley male guinea pigs each having a body weight of 500 to 600 g was clipped. After that, 0.1 ml each of Solutions 1 to 5 blended as described above was injected intracutaneously, and the surroundings of wheals, which developed in the skin, were marked with a felt-tipped pen. Pricks were applied on six sites inside each wheal with a fixed-weight sensory needle. […] The pricks were applied every 5 minutes until 60 minutes, and the total of the number of times that an anesthetic effect was observed was used as a score to assess the durability of a local anesthetic action. A 50% effective dose (effective dose 50: ED50) for dexmedetomidine was calculated based on a score for each of Solutions 1 to 5.
Each score for Solutions 16 to 21 and Solutions 22 to 27 was calculated to assess a local anesthetic effect.
Each score for Solutions 28 to 31 was calculated to assess a local anesthetic effect.

Hartley male guinea pigs [2] = test: peripheral blood flow by Doppler rheometer after intradermal injection; format: in vivo, guinea pig; settings: 0.1 ml intradermal, every 5 minutes until 30 minutes, ratio to baseline; FIG. 2
Protocol: The hair of the back was clipped and then three sites around the center of the back were marked with a felt-tipped pen at sufficient intervals. A blood flow value was measured by attaching a Doppler rheometer (ALF21RD; ADVANCE CO., LTD., Tokyo) probe and was used as a baseline value (Time 0). […] 0.1 ml each of Solutions 32, 33, and 34 obtained by the blending was intradermally injected into the three sites and the Doppler rheometer probe was fixed on the same sites. A blood flow value was time-dependently measured at an interval of 5 minutes after the injection until 30 minutes. The ratio of the blood flow value to the baseline value (0 to 1.0) was expressed as a peripheral blood flow degree and a time-dependent change at each of the injection sites was determined.

Compound | ED50 for adrenaline alone (local anesthesia enhancing action) (Hartley male guinea pigs [1]) | ED50 for adrenaline alone (local anesthesia enhancing action) (Hartley male guinea pigs [1]; listed as Adrenaline) | theoretical ED50 value in combined use (Hartley male guinea pigs [1]) | ED50 value obtained in the experiment in combined use (Hartley male guinea pigs [1]) | peripheral blood flow / peripheral vasoconstriction (Hartley male guinea pigs [2]) | ED50 for dexmedetomidine hydrochloride alone (local anesthesia enhancing action) (Hartley male guinea pigs [1]) | ED50 for dexmedetomidine hydrochloride alone (local anesthesia enhancing action) (Hartley male guinea pigs [1]; listed as Dexmedetomidine hydrochloride)
CNCC(O)c1ccc(O)c(O)c1 (stereo not drawn) [adrenaline] | 5910 nM | 5910 nM | 2960 nM | 788 nM |  |  | 
Cc1cccc([C@H](C)c2cnc[nH]2)c1C [dexmedetomidine hydrochloride, Dexmedetomidine hydrochloride] |  |  | 39.2 nM | 11.3 nM | tended to suppress the peripheral vasoconstriction action of adrenaline | 78.3 nM | 78.3 nM
